Assay results from US11612567B2, “Ocular inserts comprising a covalently linked steroid dimer” (Ripple Therapeutics Corporation, priority 2018, dated 2023).

Tests used:
intraocular pressure [1] = test: Intracameral implants of Compound 7 in subjects with glaucoma (Example 17); format: in vivo; conditions: intracameral cylinders, pellets or fibrous meshes; anecortave release by surface erosion over months to years
Description: Cylinders, pellets, or fibrous meshes of Compound 7 are formed using the methods described above. The implants are inserted intracamerally into subjects with glaucoma.

intraocular pressure [2] = test: Suprachoroidal insert of Compound 7 in a subject with glaucoma (Example 18); format: in vivo; conditions: cylinder or tube as conduit into suprachoroidal space, anecortave release; months to years
Description: A cylinder or tube of Compound 7 is formed using the methods described above. The implant is inserted into the eye of a subject with glaucoma to create a conduit from the anterior chamber into the suprachoroidal space.

rat eyes = test: Surface erosion of intravitreal implants in rat eyes, fundus microscopy; format: in vivo; conditions: heat-molded cylinders injected intravitreally
Protocol: The cylinders were injected intravitreally into rat eyes.

[3] = test system: endotoxin-induced inflammation in the eye; test: Endotoxin (LPS)-induced inflammation in the eye after intravitreal implantation, OCT vitreal cell count and retinal thickness; format: in vivo; conditions: rat, intravitreal 23 G and 30 G implants; LPS 1 day (acute) or 60 days (sub-chronic) post-implantation
Protocol: The implants were loaded into 23 G and 30 G needles respectively and were sterilized by ethylene oxide (ETO) gas. An acute study evaluating only the 23 G heat molded implants was performed and a sub-chronic study evaluating both implants followed. […] Inflammation in the eye was induced using an intravitreal injection of the endotoxin lipopolysaccharide (LPS) 1-day post-implantation for the acute study and 60 days post-implantation for the sub-chronic study. […] Optical coherence tomography (OCT) was used to image the eyes (FIG. 6E) and inflammation was assessed by quantifying the number of cells in the vitreous humour and the thickness of the retinal tissue measured from the OCT images.

[4] = Dexamethasone in the vitreous humour after intravitreal injection of cylinders; format: in vivo; conditions: New Zealand white rabbits, intravitreal cylinders 30 G×1 mm, 30 G×6 mm, 23 G×6 mm
Protocol: The cylinders were injected intravitreally into New Zealand white rabbits and dexamethasone was quantified in the vitreous humour at different time points.

[5] = test system: VEGF-induced retinal vascular leakage; test: VEGF-induced retinal vascular leakage after intravitreal implantation, fundus microscopy and fluorescein angiography; format: in vivo; conditions: Dutch belted rabbits, intravitreal 27 G and 30 G cylinders; VEGF at 1 week and 10 weeks post-implantation; versus sham injection
Protocol: The cylinders were extruded with 27 G and 30 G nozzles to get diameters ˜0.2 mm and ˜0.12 mm respectively. The cylinders were cut to different lengths, ETO gas sterilized, and injected intravitreally into the eyes of Dutch belted rabbits. VEGF was injected intravitreally at 1 week and 10 weeks post-implantation to induce retinal vascular leakage. Sham injection was used as a negative control.

[6] = Intravitreal cylinders for inflammatory or neovascularization conditions (Example 9); format: in vivo; conditions: cylinders injected into the vitreous humour
Protocol: Cylinders of Compound 1 are formed using methods described above. The cylinders are injected into the vitreous humour and release dexamethasone to the surrounding tissues including tissues in the anterior eye, the posterior eye, and surrounding tissues. […] The intravitreal implants release drug that may be used in subjects with diabetic macular edema, macular edema from retinal vein occlusion, uveitis, cystoid macular edema, post-surgical inflammation (e.g. cataract or glaucoma surgery), age-related macular degeneration, and other ocular conditions.

[7] = test system: tissue response to the device; test: Coating on a MIGS device inserted into the eye (Example 10); format: in vivo; conditions: drug released over months to years
Description: Coating of Compound 1 is applied onto a MIGS device as described in the methods above.

[8] = test system: post-surgical inflammation in the eye; test: Schlemm's canal fiber or tube implant after surgery (Example 11); format: in vivo; conditions: release by surface erosion over weeks to months
Description: A fiber or tube of Compound 1 is formed using the methods described above.

[9] = test system: post-surgical inflammation in the eye; test: Intracameral fiber mesh or cylinder after surgery (Example 12); format: in vivo; conditions: steady release over several months, e.g., three months
Description: Fibers or cylinders are formed from Compound 1 according to the methods described above. The fibers are woven into a mesh and are placed into the eye of a subject having received surgery.

[10] = test system: inflammation or neovascularization; test: Micro- or nanoparticles injected into the suprachoroidal space (Example 13); format: in vivo; conditions: release over months to years
Protocol: Micro- or nanoparticles of Compound 1 are formed using the methods described above. The particles are injected into the suprachoroidal space of a subject with an ocular condition associated with inflammation or neovascularization or as an adjunctive therapy to reduce inflammation associated with ocular surgery.

intraocular pressure [11] = test: Suprachoroidal insert of Compound 1 in a subject with glaucoma (Example 14); format: in vivo; conditions: cylinder or tube as conduit from anterior chamber into suprachoroidal space; months to years
Description: A cylinder or tube of Compound 1 is formed using the methods described above. The implant is inserted into the eye of a subject with glaucoma to create a conduit from the anterior chamber into the suprachoroidal space.

[12] = test system: post-surgical inflammation and infection; test: Intracameral implants of Compound 1 and 9 in subjects receiving ocular surgery (Example 21); format: in vivo; conditions: intracameral implants of both compounds; dexamethasone and fusidic acid release over days to weeks to a few months
Description: Cylinders, pellets, or fibrous meshes of Compound 1 and 9 are formed using the methods described above. The implants are inserted intracamerally into subjects that are receiving an ocular surgical procedure.

[13] = 37° C.
Protocol: Heat-molded pellets from Compound 1 (˜1 mm×1 mm) were placed in 20 mL glass vials and 2 mL of release buffer (either 100% phosphate buffered saline (PBS), 1% fetal bovine serum (FBS) in PBS, or 100% FBS) was added. Samples were incubated at 37° C. on a shaker rotating at 115 rpm. After 1 day, 3 days, 7 days, and subsequently in alternating 3 and 4 day intervals (i.e., 1, 3, 7, 10, 14 days etc.), release buffer was sampled directly (PBS) or syringe filtered, proteins were precipitated with acetonitrile, and drug release products were extracted. The samples were analyzed by high performance liquid chromatography (HPLC) to quantify drug products. Cumulative drug release was calculated and plotted as a percentage of the total drug in each pellet released over time (FIG. 1E).
Drug release from the glassy state heat molded pellets was carried out in PBS and/or 100% FBS, as described in Example 1, for different time periods.
Drug release from the pellets (˜1 mm×1 mm and 1 mg of total mixture) was carried out in PBS as described in Example 1. Cumulative drug release was calculated and plotted as a percentage of the total drug released over time.

[14] = test system: post-surgical infection in the eye; test: Intracameral implants of Compound 9 in subjects receiving ocular surgery (Example 19); format: in vivo; conditions: fusidic acid release over days to weeks to a few months
Description: Cylinders, pellets, or fibrous meshes of Compound 9 are formed using the methods described above. The implants are inserted intracamerally into subjects that are receiving an ocular surgical procedure.

| Compound | intraocular pressure (intraocular pressure [1]) | intraocular pressure (intraocular pressure [2]) | erosion of the implant in the eye over time (fundus microscopy) (rat eyes) | inflammation in the eye (vitreal cell count and retinal thickness by OCT) [3] | dexamethasone concentration in the vitreous humour over time [4] | retinal vascular leakage [5] | duration of dexamethasone release by surface erosion [6] | tissue response and fibrosis [7] | post-surgical inflammation [8] | inflammation in the eye [9] | inflammation or neovascularization [10] | intraocular pressure (intraocular pressure [11]) | post-surgical inflammation and infection [12] | in vitro drug release, dose and duration ([13]; extruded cylinders 30 G×1 mm, 30 G×6 mm, 23 G×6 mm, PBS) | cumulative drug release plotted over time ([13]; glassy state heat molded pellets ~1 mm×1 mm, PBS and/or 100% FBS) | erosion of pellets over time (representative images) ([13]; heat-molded pellets ~1 mm×1 mm, 100% FBS) | post-surgical infection [14] |
| --- | --- | --- | --- | --- | --- | --- | --- | --- | --- | --- | --- | --- | --- | --- | --- | --- | --- |
| Anecortave-Triethylene Glycol-Anecortave [Compound 7] | lower intraocular pressure in the eye | reduce intraocular pressure |  |  |  |  |  |  |  |  |  |  |  |  |  |  |  |
| C[C@@H]1C[C@H]2[C@@H]3CCC4=CC(=O)C=C[C@]4(C)[C@@]3(F)[C@@H](O)C[C@]2(C)[C@@]1(O)C(=O)COC(=O)OCCOCCOCCOC(=O)OCC(=O)[C@@]1(O)[C@H](C)C[C@H]2[C@@H]3CCC4=CC(=O)C=C[C@]4(C)[C@@]3(F)[C@@H](O)C[C@@]21C [Compound 1, Dexamethasone-Triethylene Glycol-Dexamethasone] |  |  | surface erosion of the implant | inhibit endotoxin-induced inflammation in the eye | consistent dose of dexamethasone is released | inhibited VEGF-induced retinal vascular leakage | months to years | inhibit a tissue response to the device and reduce fibrosis | prevent or reduce inflammation associated with the surgical procedure | Inflammation in the eye is reduced | reduces inflammation or neovascularization | reduce intraocular pressure | reduce inflammation associated with the surgery and prevent infection | roughly following surface erosion theory | mostly linearly | surface erosion over time |  |
| Fusidic Acid-Triethylene Glycol-Fusidic Acid (carbonate ester) [Compound 9] |  |  |  |  |  |  |  |  |  |  |  |  | reduce inflammation associated with the surgery and prevent infection |  |  |  | prevent infection |
